According to PubChem BioAssay (NCI):
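Results reflect a 48-hour exposure of cells in 96-well plates to compound at five concentrations. Definition used: TGI = concentration required for complete inhibition of growth.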

Columns and labels:
Test in all cases: NCI tumour cell line growth inhibition, 48 h
DU-145 prostate = system: DU-145 prostate
HOP-62 NSCLC = system: HOP-62 NSCLC
HOP-92 NSCLC = system: HOP-92 NSCLC
HT29 colon = system: HT29 colon
MCF7 breast = system: MCF7 breast
MDA-MB-231 breast = system: MDA-MB-231 breast
MDA-MB-435 = system: MDA-MB-435
NCI-H460 lung = system: NCI-H460 lung
OVCAR-3 ovarian = system: OVCAR-3 ovarian
OVCAR-4 ovarian = system: OVCAR-4 ovarian
OVCAR-8 ovarian = system: OVCAR-8 ovarian
SF-539 CNS = system: SF-539 CNS
SK-MEL-2 melanoma = system: SK-MEL-2 melanoma
T-47D breast = system: T-47D breast
UO-31 renal = system: UO-31 renal

SMILES	TGI (DU-145 prostate)	TGI (HOP-62 NSCLC)	TGI (HOP-92 NSCLC)	TGI (HT29 colon)	TGI (MCF7 breast)	TGI (MDA-MB-231 breast)	TGI (MDA-MB-435)	TGI (NCI-H460 lung)	TGI (OVCAR-3 ovarian)	TGI (OVCAR-4 ovarian)	TGI (OVCAR-8 ovarian)	TGI (SF-539 CNS)	TGI (SK-MEL-2 melanoma)	TGI (T-47D breast)	TGI (UO-31 renal)
CC1=C(C(=O)NCCc2ccccc2)CC(C(=O)NCCc2ccccc2)=C(C)N1	> 100 µM	> 100 µM	> 100 µM	> 100 µM	> 100 µM	> 100 µM	> 100 µM	> 100 µM	> 100 µM	> 100 µM	> 100 µM	> 100 µM	> 100 µM	> 100 µM	> 100 µM
CC(=O)N(CCc1ccccc1)C(C#N)c1ccc(OCCCCCCCCCCOc2ccc(C(C#N)N(CCc3ccccc3)C(C)=O)cc2)cc1 (stereo not given)	> 100 µM		43.5 µM	> 100 µM	> 100 µM	48.5 µM	> 100 µM	> 100 µM	> 100 µM	44.2 µM	> 100 µM	> 100 µM	> 100 µM	> 100 µM	> 100 µM
Cc1ccc(SCC(CF)OCn2cc(F)c(=O)[nH]c2=O)cc1 (stereo not given)	> 100 µM	> 100 µM	> 100 µM	> 100 µM	> 100 µM	> 100 µM	> 100 µM	> 100 µM	> 100 µM	> 100 µM	> 100 µM	> 100 µM	> 100 µM	> 100 µM	> 100 µM
NC1=NN(c2ccccc2)C2(O)c3ccncc3C3=NN(c4ccccc4)C(=O)C132 (stereo not given)	> 100 µM		> 100 µM	> 100 µM	> 100 µM	> 100 µM	> 100 µM	> 100 µM	> 100 µM	> 100 µM	> 100 µM	> 100 µM	> 100 µM	> 100 µM	> 100 µM
Cc1cccc(C)c1NC(=S)NC=C(C(N)=O)C(N)=O	> 100 µM	> 100 µM	> 100 µM	> 100 µM	> 100 µM	> 100 µM	> 100 µM	> 100 µM	> 100 µM	> 100 µM	> 100 µM	> 100 µM	> 100 µM	> 100 µM	> 100 µM
O=C1c2c(ccc3c2CCC3)CC12Cc1cc3c(cc1C2)CCC3	> 100 µM	> 100 µM	> 100 µM	> 100 µM	> 100 µM	> 100 µM	> 100 µM	> 100 µM	> 100 µM	> 100 µM	> 100 µM	> 100 µM	> 100 µM	> 100 µM	> 100 µM
CCOC(=O)C1C(c2ccc(OC)cc2)c2c([nH][nH]c2=O)CC1(O)OCC (stereo not given)	> 100 µM	> 100 µM	> 100 µM	> 100 µM	> 100 µM	> 100 µM	> 100 µM	> 100 µM	> 100 µM	> 100 µM	> 100 µM	> 100 µM	> 100 µM	> 100 µM	> 100 µM
N#CC(Nc1ccccc1)c1ccc(C(C#N)Nc2ccccc2)cc1 (stereo not given)	> 100 µM		> 100 µM	80.9 µM	> 100 µM	> 100 µM	> 100 µM	> 100 µM	> 100 µM	> 100 µM	> 100 µM	69 µM	> 100 µM	> 100 µM	> 100 µM
COc1ccc(C2=C(N)c3c(OC)cccc3C2=O)cc1	> 100 µM	> 100 µM		> 100 µM	> 100 µM	> 100 µM	> 100 µM	> 100 µM	> 100 µM	> 100 µM	> 100 µM	41.3 µM	> 100 µM	> 100 µM	> 100 µM
C=C(Br)CN(C(C)=O)C1CCCCC1	> 100 µM	> 100 µM		> 100 µM	> 100 µM	> 100 µM	> 100 µM	> 100 µM	> 100 µM	> 100 µM	> 100 µM	> 100 µM	> 100 µM	> 100 µM	> 100 µM
Cc1occc1C(=S)Nc1ccc(Cl)c(/C=N/OC(C)C)c1	> 54.2 µM	> 60.9 µM	37.4 µM	45 µM	> 51.6 µM	32.6 µM	31 µM	> 57.5 µM	30.9 µM	> 59.7 µM	> 55.4 µM	32.9 µM	43.8 µM	> 41.6 µM	42.8 µM
COc1cc(NCc2ccc3nc(OC)c(OC)nc3c2)cc(OC)c1OC	> 100 µM	> 100 µM	> 100 µM	> 100 µM	> 100 µM	> 100 µM	> 100 µM	> 100 µM	> 100 µM	> 100 µM	> 100 µM	> 100 µM	> 100 µM	> 100 µM	> 100 µM
CC(=O)OCC1OC(N2C(C)=C(C(C)=O)C(c3ccco3)C(C#N)=C2S)C(OC(C)=O)C(OC(C)=O)C1OC(C)=O (stereo not given)	> 100 µM	> 100 µM	> 100 µM	> 100 µM	> 100 µM	> 100 µM	> 100 µM	> 100 µM	> 100 µM	> 100 µM	> 100 µM	> 100 µM	> 100 µM	> 100 µM	> 100 µM
CN(C)C(=O)Nc1cc2c3c(c1)CCCN3CCC2	> 10 µM	> 10 µM	> 10 µM	> 10 µM	> 10 µM	> 10 µM	> 10 µM	> 10 µM	> 10 µM	> 10 µM	> 10 µM	> 10 µM	> 10 µM	> 10 µM	> 10 µM
CC1=NN(c2nc(N)nc(CSCc3nc(N)nc(N(C)C)n3)n2)C(C)(C)C1	> 100 µM	> 100 µM	> 100 µM	> 100 µM	> 100 µM	> 100 µM	> 100 µM	> 100 µM	> 100 µM	> 100 µM	> 100 µM	> 100 µM	> 100 µM	> 100 µM	> 100 µM
O=C(O)c1ccc2c(c1)CC1(C2)Cc2ccccc2C1=O (stereo not given)	> 100 µM	> 100 µM	> 100 µM	> 100 µM	> 100 µM	> 100 µM	> 100 µM	> 100 µM	> 100 µM	> 100 µM	> 100 µM	> 100 µM	> 100 µM	> 100 µM	> 100 µM
